{"source": "patent US20250188194A1", "about": "“Method of treatment” (Nucleus Therapeutics Pty Ltd, priority 2021, published 2025)", "tested_on": "differentiated PLB-985 cells", "experiment": "Quantifying DNA released (adherent NET-DNA) after PMA stimulation by spectrophotometry", "format": "cell-based, human", "conditions": "1, 10 or 50 μM GSK484 one hour prior to PMA; N=2", "description": "The results of the DAPI and SYTOX™ Green staining studies in FIG. 2C, 2D are consistent with DX1-mediated inhibition of chromatin decondensation and DNA release by differentiated PLB-985 cells. To further probe this effect, DNA-protein release was measured by differentiated PLB-985 cells after PMA stimulation by resuspending and quantifying DNA-protein complexes adherent to wells by spectrophotometry using a previously described protocol for isolation and quantification of NET-DNA in cell culture. This assay is based on the concept that intact cells for the most part remain in suspension, while DNA-protein complexes released in NETs are at least partially adhered to wells. This distinction allows for separation of intact cells from adherent NET-DNA by aspiration of the cell culture supernatants, followed by resuspension of adherent DNA-protein complexes and quantification by spectrophotometry.\nNext, the ability of this assay to detect the effect of a known NETosis inhibitor on DNA release by differentiated PLB-985 cells stimulated by PMA was verified. […] Differentiated PLB-985 cells were treated with 0-50 μM of GSK484 for one hour prior to stimulation with PMA, followed by quantification of adherent DNA by spectrophotometry. […]", "note": "“Also recorded” adds a separate entry of the source.", "data": [{"smiles": "COc1cc(C(=O)N2CC[C@@H](O)[C@@H](N)C2)cc2nc(-c3cc4ccccc4n3CC3CC3)n(C)c12", "note": "[GSK484]", "values": [{"measurement": "DNA release in response to PMA (adherent DNA by spectrophotometry)", "result": "reduced extracellular DNA in a dose-dependent manner; also recorded: dose-dependent inhibition of DNA release"}]}]}
